# Results as given in ChEMBL document CHEMBL1201862, “PubChem BioAssay data set” (2004).
# The source made the active and inactive calls.
# What was measured:
# [1] = target: T1, Rac GTPase-activating protein 1 (Homo sapiens, UniProt Q9H0H5); experiment: blockers of MgcRacGAP-driven Rac1 GTP hydrolysis – biochemical, ADP Hunter fluorescence, primary and confirmatory, confirmation (AID 624330); format: functional
# T1 sequence (Q9H0H5 whole entry): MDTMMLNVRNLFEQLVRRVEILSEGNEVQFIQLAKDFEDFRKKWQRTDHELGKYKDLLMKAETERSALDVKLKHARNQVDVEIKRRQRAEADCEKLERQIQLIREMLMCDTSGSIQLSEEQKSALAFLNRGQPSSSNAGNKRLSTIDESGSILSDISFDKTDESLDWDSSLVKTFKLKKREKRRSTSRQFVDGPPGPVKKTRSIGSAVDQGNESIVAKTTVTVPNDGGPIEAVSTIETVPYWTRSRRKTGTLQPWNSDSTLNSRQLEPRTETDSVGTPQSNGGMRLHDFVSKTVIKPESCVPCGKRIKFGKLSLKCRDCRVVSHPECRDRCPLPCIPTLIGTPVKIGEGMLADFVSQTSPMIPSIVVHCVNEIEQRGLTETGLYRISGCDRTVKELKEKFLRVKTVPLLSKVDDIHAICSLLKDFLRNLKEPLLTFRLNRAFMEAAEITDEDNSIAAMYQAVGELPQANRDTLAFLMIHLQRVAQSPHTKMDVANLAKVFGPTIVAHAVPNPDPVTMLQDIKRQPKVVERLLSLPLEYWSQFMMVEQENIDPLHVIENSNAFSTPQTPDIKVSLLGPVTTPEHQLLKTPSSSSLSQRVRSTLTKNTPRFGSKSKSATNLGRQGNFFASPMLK
# [2] = target: FAD-linked sulfhydryl oxidase ALR (Homo sapiens, UniProt P55789); experiment: ALR-catalysed DTT oxidation blockers – biochemical, H2O2 detection, luminescence, cherry-pick, dose response (AID 493248)
# Sequence of FAD-linked sulfhydryl oxidase ALR (P55789 whole entry): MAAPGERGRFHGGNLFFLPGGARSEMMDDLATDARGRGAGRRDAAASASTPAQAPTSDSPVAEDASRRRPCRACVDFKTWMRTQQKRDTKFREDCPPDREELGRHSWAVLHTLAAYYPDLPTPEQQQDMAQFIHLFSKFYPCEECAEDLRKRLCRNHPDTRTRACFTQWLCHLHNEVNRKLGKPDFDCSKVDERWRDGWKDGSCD
# H9c2 = experiment: cells; format: functional, cell-based; settings: Rattus norvegicus, H9c2, Myocardium;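 note: confirmatory concentration-response retest of ultra-high-throughput screening hits for modulation of myocardial damage; cell death induced by hydrogen peroxide oxidative stress; compound pretreatment for 60 min then peroxide exposure for 2 h; potency is for protecting the cells against peroxide damage rather than for killing them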
# [3] = target: T2, Histone-lysine N-methyltransferase NSD2 (Homo sapiens, UniProt O96028); format: biochemical
# T2 sequence (O96028 whole entry): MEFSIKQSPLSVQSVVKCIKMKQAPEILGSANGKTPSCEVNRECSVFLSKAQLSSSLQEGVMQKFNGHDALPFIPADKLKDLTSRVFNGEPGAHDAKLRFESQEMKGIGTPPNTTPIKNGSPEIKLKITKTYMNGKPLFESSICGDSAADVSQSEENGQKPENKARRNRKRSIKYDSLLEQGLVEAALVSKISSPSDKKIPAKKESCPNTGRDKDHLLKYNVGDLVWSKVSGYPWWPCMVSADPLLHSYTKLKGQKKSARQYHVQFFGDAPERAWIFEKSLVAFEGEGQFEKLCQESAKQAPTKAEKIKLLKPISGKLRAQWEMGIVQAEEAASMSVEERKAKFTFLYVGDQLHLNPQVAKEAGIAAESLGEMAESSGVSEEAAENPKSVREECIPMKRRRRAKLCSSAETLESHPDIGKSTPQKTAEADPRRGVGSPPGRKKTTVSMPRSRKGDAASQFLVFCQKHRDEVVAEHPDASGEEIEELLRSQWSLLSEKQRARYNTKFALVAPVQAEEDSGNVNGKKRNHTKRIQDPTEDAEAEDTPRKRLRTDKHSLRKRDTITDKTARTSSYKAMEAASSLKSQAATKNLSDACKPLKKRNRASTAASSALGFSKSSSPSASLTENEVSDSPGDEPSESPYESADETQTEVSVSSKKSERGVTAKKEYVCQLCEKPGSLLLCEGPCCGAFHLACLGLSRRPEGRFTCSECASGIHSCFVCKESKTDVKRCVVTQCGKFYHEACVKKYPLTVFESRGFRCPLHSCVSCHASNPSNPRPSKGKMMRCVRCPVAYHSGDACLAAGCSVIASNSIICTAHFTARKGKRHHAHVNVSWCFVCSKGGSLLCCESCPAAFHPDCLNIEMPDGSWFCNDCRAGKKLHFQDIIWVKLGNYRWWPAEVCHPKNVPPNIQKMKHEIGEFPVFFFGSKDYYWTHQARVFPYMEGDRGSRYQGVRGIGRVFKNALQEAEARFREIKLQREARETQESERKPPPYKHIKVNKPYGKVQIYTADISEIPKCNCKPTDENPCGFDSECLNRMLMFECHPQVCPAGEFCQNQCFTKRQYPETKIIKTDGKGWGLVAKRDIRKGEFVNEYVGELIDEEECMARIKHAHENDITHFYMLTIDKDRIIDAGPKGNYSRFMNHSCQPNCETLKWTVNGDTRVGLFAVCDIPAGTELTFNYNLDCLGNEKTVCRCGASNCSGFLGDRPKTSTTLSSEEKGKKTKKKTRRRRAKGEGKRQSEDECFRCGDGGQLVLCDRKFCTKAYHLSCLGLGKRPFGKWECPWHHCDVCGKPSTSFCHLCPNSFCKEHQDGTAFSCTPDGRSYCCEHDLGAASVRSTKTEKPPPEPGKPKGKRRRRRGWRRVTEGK
# [4] = THP-1 cell cytotoxicity, dose response, cytotoxicity control for non-replicating M. tuberculosis project (AID 489025); format: functional
# [5] = Vero E6 cell cytotoxicity, dose response, cytotoxicity control for non-replicating M. tuberculosis project, secondary assay (AID 492998); format: functional, VeroE6; settings: Vero C1008
# cells = format: functional
# [6] = luciferase reporter signal suppression in cells – H4 neuroglioma cells, luminescence, dose response (AID 1990); format: functional, cell-based
# BJ [7] = experiment: cells; format: functional, cell-based; settings: Homo sapiens
# BJ [8] = experiment: BJ-TERT-LT-ST fibroblast viability loss – cell-based, RAS-independent, luminescence, dose response (AID 1935); format: functional; settings: Homo sapiens;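 note: BJ fibroblasts immortalized with TERT plus LT and ST oncogenes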
# [9] = Luminescence Cell-Based Dose Response HTS to Identify Inhibitors of 5'UTR Stem-Loop Driven Prion Protein mRNA Translation in H4 Neuroglioblastoma Cells. [Related pubchem assays: 1827 (Project Summary), 1813 (Primary HTS)]; format: functional
# [10] = DRD fibroblast viability loss – cell-based, non-viral oncogenic, luminescence, dose response (AID 1934); format: functional; settings: Homo sapiens
# Vero = experiment: cells; format: functional; settings: Chlorocebus sabaeus
# Large T antigen = Large T antigen (Simian virus 40, UniProt P03070); format: functional, Betapolyomavirus macacae;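 note: Confirmatory-stage PubChem screen for compounds that inhibit SV40 T antigen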
# Sequence of Large T antigen (P03070 whole entry): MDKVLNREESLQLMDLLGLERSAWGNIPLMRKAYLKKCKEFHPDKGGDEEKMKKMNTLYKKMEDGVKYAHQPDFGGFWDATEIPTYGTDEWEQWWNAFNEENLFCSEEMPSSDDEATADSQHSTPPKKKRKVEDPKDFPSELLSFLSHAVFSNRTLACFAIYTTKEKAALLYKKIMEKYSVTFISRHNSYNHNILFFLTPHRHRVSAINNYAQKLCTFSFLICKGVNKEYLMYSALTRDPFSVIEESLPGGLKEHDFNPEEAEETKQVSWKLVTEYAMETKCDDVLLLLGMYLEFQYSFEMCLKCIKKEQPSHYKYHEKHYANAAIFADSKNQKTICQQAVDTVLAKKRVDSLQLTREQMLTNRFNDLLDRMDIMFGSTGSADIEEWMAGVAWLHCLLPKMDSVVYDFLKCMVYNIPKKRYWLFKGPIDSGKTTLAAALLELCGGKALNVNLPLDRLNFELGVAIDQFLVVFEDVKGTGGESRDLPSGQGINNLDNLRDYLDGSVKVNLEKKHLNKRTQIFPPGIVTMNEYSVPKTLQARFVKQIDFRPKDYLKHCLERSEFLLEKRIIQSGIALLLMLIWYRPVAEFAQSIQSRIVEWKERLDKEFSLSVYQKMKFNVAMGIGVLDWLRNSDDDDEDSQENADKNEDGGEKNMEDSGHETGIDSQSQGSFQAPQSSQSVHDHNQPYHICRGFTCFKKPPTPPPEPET
# Cytochrome P450 2C9 = Cytochrome P450 2C9 (Homo sapiens, UniProt P11712)
# Sequence of Cytochrome P450 2C9 (P11712 whole entry): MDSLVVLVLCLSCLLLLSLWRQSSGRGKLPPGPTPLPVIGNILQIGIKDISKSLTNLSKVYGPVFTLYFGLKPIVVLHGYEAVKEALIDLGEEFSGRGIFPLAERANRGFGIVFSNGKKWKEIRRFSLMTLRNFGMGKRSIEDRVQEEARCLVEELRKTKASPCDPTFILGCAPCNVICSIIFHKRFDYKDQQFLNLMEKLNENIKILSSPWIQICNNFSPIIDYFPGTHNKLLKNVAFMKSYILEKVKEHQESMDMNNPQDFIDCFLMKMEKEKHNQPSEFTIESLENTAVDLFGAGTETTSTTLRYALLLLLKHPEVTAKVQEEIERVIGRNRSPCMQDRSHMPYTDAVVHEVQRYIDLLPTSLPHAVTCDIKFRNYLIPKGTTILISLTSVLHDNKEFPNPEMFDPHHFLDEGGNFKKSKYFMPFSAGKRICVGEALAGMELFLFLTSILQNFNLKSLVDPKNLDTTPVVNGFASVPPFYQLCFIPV
# Cytochrome P450 2D6 = Cytochrome P450 2D6 (Homo sapiens, UniProt P10635);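 note: CYP2D6 member of a cytochrome P450 panel assay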
# Sequence of Cytochrome P450 2D6 (P10635 whole entry): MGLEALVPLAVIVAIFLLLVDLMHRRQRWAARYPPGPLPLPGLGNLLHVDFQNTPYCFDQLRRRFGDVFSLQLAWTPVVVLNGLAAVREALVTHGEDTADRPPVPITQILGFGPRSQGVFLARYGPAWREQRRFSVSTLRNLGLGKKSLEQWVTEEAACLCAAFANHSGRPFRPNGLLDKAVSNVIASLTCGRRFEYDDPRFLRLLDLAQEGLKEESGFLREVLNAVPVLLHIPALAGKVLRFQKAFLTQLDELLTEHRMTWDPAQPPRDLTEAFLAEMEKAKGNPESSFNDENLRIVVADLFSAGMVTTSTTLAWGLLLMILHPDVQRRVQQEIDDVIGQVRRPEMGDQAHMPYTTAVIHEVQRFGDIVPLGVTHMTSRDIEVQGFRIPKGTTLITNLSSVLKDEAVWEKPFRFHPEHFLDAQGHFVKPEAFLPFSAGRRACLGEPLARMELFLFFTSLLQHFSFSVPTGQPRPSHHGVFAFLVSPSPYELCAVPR
# [11] = Trypanosoma cruzi growth suppression in host cells – NIH3T3 host cells, beta-gal luminescence, confirmation (AID 2044); format: functional, cell-based;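 note: intracellular parasites grown in NIH/3T3 mouse fibroblasts as host cells; luminescent beta-galactosidase reporter signal from transgenic T. cruzi replicating inside host cells; inhibitors lower the luminescence signal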
# [12] = NIH3T3 cell viability loss – ATP luminescence, mouse fibroblasts, counter-screen, dose response (AID 2010); format: functional, cell-based;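 note: cells exposed to compound for about 90 hours before reading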
compound,measurement,setting,value
Cc1ccn2c(NC3CCCC3)c(-c3ccncc3)nc2c1,IC50,[1],55.3 µM (active)
same,AC50,[2],1.45 µM (active)
Cc1ccc(OCCOC(=O)CCc2nc(O)c3ccccc3n2)cc1,IC50,H9c2,10.6 µM (active)
CN(C)c1ccc(C2N(c3ccc(F)cc3)C(=O)C3CCCN32)cc1 (stereo not given),AC50,[2],49.4 µM (active)
Oc1nc(N2CCN(c3ccccc3)CC2)nc2c1CCCC2,IC50,H9c2,> 79 µM (inactive)
Cc1ccc2c(c1)CCCN2CC(=O)N(C)c1c(N)n(Cc2ccccc2)c(=O)[nH]c1=O,AC50,[2],20 µM (active)
O=C(CC(C(=O)c1ccccc1)c1ccccc1)c1ccccc1 (stereo not given),IC50,H9c2,> 79 µM (inactive)
CCNCCNc1ccc(Cl)cc1[N+](=O)[O-],AC50,[3],> 20 µM (inactive)
C/C(=N\NC(=O)CCCNc1ccc(C)cc1)c1ccccn1,CC50,[4],13.1 µM (active)
same,CC50,[5],14.3 µM (active)
same,IC50,cells,18.4 µM (active)
same,IC50,H9c2,13.6 µM (active)
Cc1nc(-[n+]2nc(-c3ccncc3)nn2-c2ccccc2)sc1C,AC50,[3],> 20 µM (inactive)
O=C(N/N=C/c1ccc(Cl)cc1)c1[nH]nc2c1CCCC2,EC50,[6],8.55 µM (inconclusive)
same,EC50,BJ [7],39.2 µM (active)
same,EC50,BJ [8],0.669 µM (active)
same,EC50,[9],> 120 µM (not active)
same,EC50,[10],0.657 µM (active)
same,CC50,Vero,2.59 µM (active)
C/C(=N\Nc1nc2ccccc2nc1C)c1ccccc1O,CC50,[4],> 40 µM (active)
same,CC50,[5],> 20 µM (active)
same,IC50,cells,2.54 µM (active)
COc1cc(/C=N/Nc2nc3ccccc3o2)cc(OC)c1O,AC50,[2],0.025 µM (active)
same,IC50,Large T antigen,8.87 µM (active)
O=[N+]([O-])c1ccc(Cl)c(/C=N/N2CCN(Cc3ccccc3)CC2)c1,AC50,Cytochrome P450 2C9,inconclusive
same,AC50,Cytochrome P450 2D6,11.2 µM (inconclusive)
C/C(=N\Nc1cccc(Cl)c1)c1ccncc1,EC50,[11],1.42 µM (active)
same,AC50,[2],0.536 µM (active)
same,EC50,[12],> 60 µM (not active)
CNc1nc(N)c(C(=O)C(C)(C)C)s1,AC50,[2],4.57 µM (active)
